# pIC50: −log10 of the molar value.
# Target: MEK1 (Homo sapiens, UniProt Q02750, DEL33-52/S218E/S222D)
# Assay: MEK1 inhibition, ERK1/FI-Erktide fluorescence polarization assay with IMAP beads
# MEK1, sequence (Q02750 with tags, fused parts or gaps DEL33-52/S218E/S222D): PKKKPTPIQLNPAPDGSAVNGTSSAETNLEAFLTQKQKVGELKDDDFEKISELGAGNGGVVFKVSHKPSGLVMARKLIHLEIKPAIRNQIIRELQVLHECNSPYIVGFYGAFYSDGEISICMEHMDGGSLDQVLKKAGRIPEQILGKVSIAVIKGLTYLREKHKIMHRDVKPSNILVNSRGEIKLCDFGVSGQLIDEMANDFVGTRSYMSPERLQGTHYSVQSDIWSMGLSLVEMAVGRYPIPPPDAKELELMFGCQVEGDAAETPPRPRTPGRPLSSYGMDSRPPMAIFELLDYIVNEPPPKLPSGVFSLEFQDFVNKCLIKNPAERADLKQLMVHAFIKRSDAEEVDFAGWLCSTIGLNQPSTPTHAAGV
row,pIC50,Compound
1,≤ 7.80,"COC(=O)Cn1cnc2c(c(Nc3ccc(I)cc3F)cc(=O)n2C)c1=O [Example 3, Methyl 2-(5-(2-fluoro-4-iodophenylamino)-8-methyl-4,7-dioxo-7,8-dihydropyrido[2,3-d]pyrimidin-3(4H)-yl)acetate]"
2,≥ 8.30,"Cn1c(=O)c(Cl)c(Nc2ccc(I)cc2F)c2c(=O)n(C[C@H](O)CO)cnc21 [Example 7, (S)-6-Chloro-3-(2,3-dihydroxypropyl)-5-(2-fluoro-4-iodophenylamino)-8-methylpyrido[2,3-d]pyrimidine-4,7(3H,8H)-dione]"
3,≤ 7.80,"Cc1c(Nc2ccc(Br)cc2F)c2c(=O)n(C[C@H](O)CO)cnc2n(C)c1=O [Example 9, (S)-5-(4-Bromo-2-fluorophenylamino)-3-(2,3-dihydroxypropyl)-6,8-dimethylpyrido[2,3-d]pyrimidine-4,7(3H,8H)-dione]"
4,≤ 7.80,"Cc1c(Nc2ccc(Br)cc2F)c2c(=O)n(C[C@@H](O)CO)cnc2n(C)c1=O [Example 10, (R)-5-(4-Bromo-2-fluorophenylamino)-3-(2,3-dihydroxypropyl)-6,8-dimethylpyrido[2,3-d]pyrimidine-4,7(3H,8H)-dione]"
5,≤ 7.80,"Cc1c(Nc2ccc(Br)cc2F)c2c(=O)n(CCO)cnc2n(C)c1=O [Example 11, 5-(4-Bromo-2-fluorophenylamino)-3-(2-hydroxyethyl)-6,8-dimethylpyrido[2,3-d]pyrimidine-4,7(3H,8H)-dione]"
6,≥ 8.30,"Cc1c(Nc2ccc(I)cc2F)c2c(=O)n(CCO)cnc2n(C)c1=O [Example 14, 5-(2-Fluoro-4-iodophenylamino)-3-(2-hydroxyethyl)-6,8-dimethylpyrido[2,3-d]pyrimidine-4,7(3H,8H)-dione]"
7,≤ 7.80,"Cc1c(Nc2ccccc2F)c2c(=O)n(CCO)cnc2n(C)c1=O [Example 15, 5-(2-Fluorophenylamino)-3-(2-hydroxyethyl)-6,8-dimethylpyrido[2,3-d]pyrimidine-4,7(3H,8H)-dione]"
8,7.82 to 8.30,"C#Cc1ccc(Nc2c(C)c(=O)n(C)c3ncn(C[C@@H](O)CO)c(=O)c23)c(F)c1 [Example 16, (R)-3-(2,3-Dihydroxypropyl)-5-(4-ethynyl-2-fluorophenylamino)-6,8-dimethylpyrido[2,3-d]pyrimidine-4,7(3H,8H)-dione]"
9,≥ 8.30,"Cn1c(=O)c(F)c(Nc2ccc(I)cc2F)c2c(=O)n(C[C@@H](O)CO)cnc21 [Example 18, (R)-3-(2,3-Dihydroxypropyl)-6-fluoro-5-(2-fluoro-4-iodophenylamino)-8-methylpyrido[2,3-d]pyrimidine-4,7(3H,8H)-dione]"
10,≥ 8.30,"Cn1c(=O)c(F)c(Nc2ccc(I)cc2F)c2c(=O)n(C[C@H](O)CO)cnc21 [Example 19, (S)-3-(2,3-Dihydroxypropyl)-6-fluoro-5-(2-fluoro-4-iodophenylamino)-8-methylpyrido[2,3-d]pyrimidine-4,7(3H,8H)-dione]"
11,7.82 to 8.30,"C#Cc1ccc(Nc2c(F)c(=O)n(C)c3ncn(C[C@H](O)CO)c(=O)c23)c(F)c1 [Example 21, (S)-3-(2,3-Dihydroxypropyl)-5-(4-ethynyl-2-fluorophenylamino)-6-fluoro-8-methylpyrido[2,3-d]pyrimidine-4,7(3H,8H)-dione]"
12,≥ 8.30,"C#Cc1ccc(Nc2c(F)c(=O)n(C)c3ncn(C[C@@H](O)CO)c(=O)c23)c(F)c1 [Example 22, (R)-3-(2,3-dihydroxypropyl)-5-(4-ethynyl-2-fluorophenylamino)-6-fluoro-8-methylpyrido[2,3-d]pyrimidine-4,7(3H,8H)-dione]"
13,≤ 7.80,"Cn1c(=O)c(F)c(Nc2ccc(NS(C)(=O)=O)cc2F)c2c(=O)n(C[C@@H](O)CO)cnc21 [Example 23, (R)—N-(4-(3-(2,3-Dihydroxypropyl)-6-fluoro-8-methyl-4,7-dioxo-3,4,7,8-tetrahydropyrido[2,3-d]pyrimidin-5-ylamino)-3-fluorophenyl)methanesulfonamide]"
14,≥ 8.30,"Cn1c(=O)c(F)c(Nc2ccc(I)cc2F)c2c(=O)n(C(CO)CO)cnc21 [Example 25, 3-(1,3-Dihydroxypropan-2-yl)-6-fluoro-5-(2-fluoro-4-iodophenylamino)-8-methylpyrido[2,3-d]pyrimidine-4,7(3H,8H)-dione]"
15,≥ 8.30,"Cn1c(=O)c(F)c(Nc2ccc(I)cc2F)c2c(=O)n(OC[C@H](O)CO)cnc21 [Example 28, (R)-3-(2,3-Dihydroxypropoxy)-6-fluoro-5-(2-fluoro-4-iodophenylamino)-8-methylpyrido[2,3-d]pyrimidine-4,7(3H,8H)-dione]"
16,7.82 to 8.30,"Cn1c(=O)c(Cl)c(Nc2ccc(Br)cc2F)c2c(=O)n(C[C@@H](O)CO)cnc21 [Example 29, (R)-5-(4-Bromo-2-fluorophenylamino)-6-chloro-3-(2,3-dihydroxypropyl)-8-methylpyrido[2,3-d]pyrimidine-4,7(3H,8H)-dione]"
17,≥ 8.30,"Cn1c(=O)c(Cl)c(Nc2ccc(I)cc2F)c2c(=O)n(CCO)cnc21 [Example 30, 6-Chloro-5-(2-fluoro-4-iodophenylamino)-3-(2-hydroxyethyl)-8-methylpyrido[2,3-d]pyrimidine-4,7(3H,8H)-dione]"
18,≥ 8.30,"Cn1c(=O)cc(Nc2ccc(I)cc2F)c2c(=O)n(CCCO)cnc21 [Example 31, 5-(2-Fluoro-4-iodophenylamino)-3-(3-hydroxypropyl)-8-methylpyrido[2,3-d]pyrimidine-4,7(3H,8H)-dione]"
19,≥ 8.30,"Cn1c(=O)c(Cl)c(Nc2ccc(I)cc2F)c2c(=O)n(CCCO)cnc21 [Example 32, 6-Chloro-5-(2-fluoro-4-iodophenylamino)-3-(3-hydroxypropyl)-8-methylpyrido[2,3-d]pyrimidine-4,7(3H,8H)-dione]"
20,≤ 7.80,"Cn1c(=O)cc(Nc2ccc(Br)cc2F)c2c(=O)n(CCCO)cnc21 [Example 33, 5-(4-Bromo-2-fluorophenylamino)-3-(3-hydroxypropyl)-8-methylpyrido[2,3-d]pyrimidine-4,7(3H,8H)-dione]"
21,7.82 to 8.30,"Cn1c(=O)c(Cl)c(Nc2ccc(Br)cc2F)c2c(=O)n(CCCO)cnc21 [Example 34, 5-(4-Bromo-2-fluorophenylamino)-6-chloro-3-(3-hydroxypropyl)-8-methylpyrido[2,3-d]pyrimidine-4,7(3H,8H)-dione]"
22,≤ 7.80,"Cn1c(=O)cc(Nc2ccc(Br)cc2Cl)c2c(=O)n(CCCO)cnc21 [Example 35, 5-(4-Bromo-2-chlorophenylamino)-3-(3-hydroxypropyl)-8-methylpyrido[2,3-d]pyrimidine-4,7(3H,8H)-dione]"
23,≤ 7.80,"Cn1c(=O)c(Cl)c(Nc2ccc(Br)cc2Cl)c2c(=O)n(CCCO)cnc21 [Example 36, 5-(4-Bromo-2-chlorophenylamino)-6-chloro-3-(3-hydroxypropyl)-8-methylpyrido[2,3-d]pyrimidine-4,7(3H,8H)-dione]"
24,≤ 7.80,"CN(C)CCn1cnc2c(c(Nc3ccc(I)cc3F)cc(=O)n2C)c1=O [Example 37, 3-(2-(Dimethylamino)ethyl)-5-(2-fluoro-4-iodophenylamino)-8-methylpyrido[2,3-d]pyrimidine-4,7(3H,8H)-dione]"
25,≤ 7.80,"CC(O)Cn1cnc2c(c(Nc3ccc(I)cc3F)cc(=O)n2C)c1=O (centres unmarked) [Example 38, 5-(2-Fluoro-4-iodophenylamino)-3-(2-hydroxypropyl)-8-methylpyrido[2,3-d]pyrimidine-4,7(3H,8H)-dione]"
26,7.82 to 8.30,"CC(O)Cn1cnc2c(c(Nc3ccc(I)cc3F)c(Cl)c(=O)n2C)c1=O (centres unmarked) [Example 40, 6-Chloro-5-(2-fluoro-4-iodophenylamino)-3-(2-hydroxypropyl)-8-methylpyrido[2,3-d]pyrimidine-4,7(3H,8H)-dione]"
27,≤ 7.80,"Cn1c(=O)cc(Nc2ccc(I)cc2F)c2c(=O)n(Cc3ccccc3)cnc21 [Example 42, 3-Benzyl-5-(2-fluoro-4-iodophenylamino)-8-methylpyrido[2,3-d]pyrimidine-4,7(3H,8H)-dione]"
28,7.82 to 8.30,"Cc1c(Nc2ccc(I)cc2F)c2c(=O)n(C(CO)CO)cnc2n(C)c1=O [Example 43, 3-(1,3-Dihydroxypropan-2-yl)-5-(2-fluoro-4-iodophenylamino)-6,8-dimethylpyrido[2,3-d]pyrimidine-4,7(3H,8H)-dione]"
29,7.82 to 8.30,"C#Cc1ccc(Nc2c(C)c(=O)n(C)c3ncn(C[C@H](O)CO)c(=O)c23)c(F)c1 [Example 44, (S)-3-(2,3-Dihydroxypropyl)-5-(4-ethynyl-2-fluorophenylamino)-6,8-dimethylpyrido[2,3-d]pyrimidine-4,7(3H,8H)-dione]"
